Experimental findings from article PMC4648050, “Discovery of Inhibitors of Trypanosoma brucei by Phenotypic Screening of a Focused Protein Kinase Library” (Chemmedchem, 2015) are described below.

Holding throughout (assay type): biochemical, human/mammalian
Holding throughout (conditions): compound at 10 μM, read-out: % of activity respect of the control

In experiment [1] the target is T1, NEK2a (Homo sapiens, UniProt P51955).
T1 sequence (P51955 1-445): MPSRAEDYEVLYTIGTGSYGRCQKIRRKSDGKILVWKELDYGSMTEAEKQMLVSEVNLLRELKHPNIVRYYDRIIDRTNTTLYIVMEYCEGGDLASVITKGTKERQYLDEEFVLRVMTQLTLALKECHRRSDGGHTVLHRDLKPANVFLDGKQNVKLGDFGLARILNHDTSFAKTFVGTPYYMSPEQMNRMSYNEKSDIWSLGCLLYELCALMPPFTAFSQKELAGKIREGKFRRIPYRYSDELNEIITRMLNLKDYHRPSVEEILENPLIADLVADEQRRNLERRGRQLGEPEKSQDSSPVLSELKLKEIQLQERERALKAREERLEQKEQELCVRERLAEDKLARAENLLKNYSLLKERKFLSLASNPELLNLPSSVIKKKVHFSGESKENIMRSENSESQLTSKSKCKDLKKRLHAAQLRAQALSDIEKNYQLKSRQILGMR
As to the kind of experiment: Kinase panel: NEK2a. The method, then:
(§1) The DDU kinase-focused compound set contains lead-like scaffolds that are designed to target protein kinases; they have kinase hinge binding motifs. Four of the 1H-imidazopyrazinones were screened against a human/mammalian kinase panel at the University of Dundee (http://www.kinase-screen.mrc.ac.uk) at a concentration of 10 μM. At the time of testing the panel contained 79 mammalian kinases selected to provide a broad coverage of the mammalian kinome (∼500 kinases in the human genome).[3] None of the compounds were active against any of the kinases at 10 μM.

Experiment [2] addresses T2, IKKb (Homo sapiens, UniProt O14920).
T2 sequence (O14920 1-756): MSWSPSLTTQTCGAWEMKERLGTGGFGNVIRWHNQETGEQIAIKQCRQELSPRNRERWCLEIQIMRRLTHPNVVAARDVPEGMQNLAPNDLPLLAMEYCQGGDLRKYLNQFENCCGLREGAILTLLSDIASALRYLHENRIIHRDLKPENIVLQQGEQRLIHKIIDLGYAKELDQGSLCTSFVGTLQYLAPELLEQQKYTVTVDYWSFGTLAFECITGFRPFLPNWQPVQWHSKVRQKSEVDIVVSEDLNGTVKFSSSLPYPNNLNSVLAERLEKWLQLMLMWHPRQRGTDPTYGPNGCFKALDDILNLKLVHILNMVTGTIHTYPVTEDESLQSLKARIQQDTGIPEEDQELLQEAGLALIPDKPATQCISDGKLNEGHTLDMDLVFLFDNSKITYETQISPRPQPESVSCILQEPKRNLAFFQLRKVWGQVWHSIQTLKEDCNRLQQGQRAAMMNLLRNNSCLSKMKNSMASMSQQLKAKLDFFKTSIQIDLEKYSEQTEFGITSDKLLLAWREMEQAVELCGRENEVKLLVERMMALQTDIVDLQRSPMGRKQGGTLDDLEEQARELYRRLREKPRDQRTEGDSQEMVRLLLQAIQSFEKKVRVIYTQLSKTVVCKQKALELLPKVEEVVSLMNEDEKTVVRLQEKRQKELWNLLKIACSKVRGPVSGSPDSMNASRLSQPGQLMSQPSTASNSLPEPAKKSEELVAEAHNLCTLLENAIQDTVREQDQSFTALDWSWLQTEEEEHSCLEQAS
The experiment can be described thus: Kinase panel: IKKb. The method, then:
as §1

For experiment [3], the target named is T3, MST2 (Homo sapiens, UniProt Q13188).
T3 sequence (Q13188 1-491): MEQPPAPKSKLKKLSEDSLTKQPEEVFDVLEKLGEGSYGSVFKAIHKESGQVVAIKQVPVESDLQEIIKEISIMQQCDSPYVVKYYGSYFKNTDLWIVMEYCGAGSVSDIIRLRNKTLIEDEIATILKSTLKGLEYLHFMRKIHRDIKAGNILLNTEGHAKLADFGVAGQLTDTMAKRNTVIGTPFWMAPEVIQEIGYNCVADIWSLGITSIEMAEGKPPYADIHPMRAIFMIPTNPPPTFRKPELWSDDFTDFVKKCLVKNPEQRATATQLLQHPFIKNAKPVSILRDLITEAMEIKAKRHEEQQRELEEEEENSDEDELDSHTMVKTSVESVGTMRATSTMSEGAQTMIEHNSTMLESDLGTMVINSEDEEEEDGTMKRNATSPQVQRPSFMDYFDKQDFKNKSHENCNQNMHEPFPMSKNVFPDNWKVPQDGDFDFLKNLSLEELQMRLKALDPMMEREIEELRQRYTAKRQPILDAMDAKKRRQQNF
The experiment can be described thus: Kinase panel: MST2. The procedure:
as §1

Experiment [4] deals with PAK5 (Homo sapiens, UniProt Q9P286). The experiment can be described thus: Kinase panel: PAK5. The procedure:
as §1

Experiment [5] has as its target YES1 (Homo sapiens, UniProt P07947). As to the kind of experiment: Kinase panel: YES1. The method, then:
as §1

The target of experiment [6] is T4, IKK epsilon (14231) (Homo sapiens, UniProt Q14164).
T4 sequence (Q14164 1-716): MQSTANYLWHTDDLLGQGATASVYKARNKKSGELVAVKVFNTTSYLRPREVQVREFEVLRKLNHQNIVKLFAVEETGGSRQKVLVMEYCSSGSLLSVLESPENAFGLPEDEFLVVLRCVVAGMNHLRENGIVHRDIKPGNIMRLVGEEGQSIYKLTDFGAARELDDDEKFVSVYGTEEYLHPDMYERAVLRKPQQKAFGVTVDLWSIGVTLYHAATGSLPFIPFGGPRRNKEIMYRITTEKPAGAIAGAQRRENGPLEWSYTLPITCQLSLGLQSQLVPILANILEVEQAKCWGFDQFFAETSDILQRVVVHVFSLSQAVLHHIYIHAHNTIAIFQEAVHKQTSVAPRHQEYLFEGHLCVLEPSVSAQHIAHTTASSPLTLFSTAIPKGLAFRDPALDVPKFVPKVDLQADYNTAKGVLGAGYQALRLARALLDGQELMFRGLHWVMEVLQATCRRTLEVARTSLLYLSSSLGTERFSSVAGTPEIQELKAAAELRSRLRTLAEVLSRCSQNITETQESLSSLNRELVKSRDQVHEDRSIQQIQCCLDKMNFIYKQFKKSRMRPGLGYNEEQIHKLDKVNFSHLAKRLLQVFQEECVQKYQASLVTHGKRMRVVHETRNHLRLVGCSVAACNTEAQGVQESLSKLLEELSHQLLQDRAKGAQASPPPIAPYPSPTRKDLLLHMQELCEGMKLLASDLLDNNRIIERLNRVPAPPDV
The experiment can be described thus: Kinase panel: IKK epsilon (14231). The method, then: as §1

YES1, sequence (P07947 whole entry): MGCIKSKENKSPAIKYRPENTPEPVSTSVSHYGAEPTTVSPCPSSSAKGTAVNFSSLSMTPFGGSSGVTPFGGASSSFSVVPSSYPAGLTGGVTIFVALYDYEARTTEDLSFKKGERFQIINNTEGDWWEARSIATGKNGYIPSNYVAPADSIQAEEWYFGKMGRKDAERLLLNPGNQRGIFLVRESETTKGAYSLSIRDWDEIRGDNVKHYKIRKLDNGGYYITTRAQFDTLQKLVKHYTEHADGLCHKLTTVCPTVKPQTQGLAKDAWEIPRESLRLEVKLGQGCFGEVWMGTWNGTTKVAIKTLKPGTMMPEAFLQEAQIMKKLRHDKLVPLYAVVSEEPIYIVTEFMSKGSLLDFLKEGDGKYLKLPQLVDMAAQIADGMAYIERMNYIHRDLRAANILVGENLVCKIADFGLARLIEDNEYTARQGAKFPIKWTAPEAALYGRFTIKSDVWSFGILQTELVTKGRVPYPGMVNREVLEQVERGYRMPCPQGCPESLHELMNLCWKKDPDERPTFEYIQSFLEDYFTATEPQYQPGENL
PAK5, sequence (Q9P286 whole entry): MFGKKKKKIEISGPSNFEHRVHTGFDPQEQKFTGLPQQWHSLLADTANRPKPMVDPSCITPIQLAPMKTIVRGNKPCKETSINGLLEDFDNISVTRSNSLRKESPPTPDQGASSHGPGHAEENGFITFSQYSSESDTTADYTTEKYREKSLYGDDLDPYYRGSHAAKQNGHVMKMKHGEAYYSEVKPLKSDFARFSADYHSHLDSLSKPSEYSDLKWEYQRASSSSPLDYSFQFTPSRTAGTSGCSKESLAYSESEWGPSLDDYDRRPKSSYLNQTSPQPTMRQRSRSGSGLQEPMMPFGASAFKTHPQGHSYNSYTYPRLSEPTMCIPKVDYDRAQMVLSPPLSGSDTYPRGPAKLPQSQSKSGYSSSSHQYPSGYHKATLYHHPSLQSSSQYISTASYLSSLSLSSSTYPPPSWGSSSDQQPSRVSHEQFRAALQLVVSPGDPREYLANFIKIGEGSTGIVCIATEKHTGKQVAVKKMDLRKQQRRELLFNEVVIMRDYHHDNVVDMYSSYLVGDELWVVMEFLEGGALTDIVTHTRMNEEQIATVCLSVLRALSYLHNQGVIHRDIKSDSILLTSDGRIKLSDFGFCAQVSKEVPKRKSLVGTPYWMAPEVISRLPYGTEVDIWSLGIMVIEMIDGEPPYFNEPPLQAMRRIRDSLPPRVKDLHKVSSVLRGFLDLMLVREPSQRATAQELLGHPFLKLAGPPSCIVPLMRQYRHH

On to `CC(c1ccccc1)n1c(=O)[nH]c2ncc(-c3ccc(F)cc3)nc21` (stereo not drawn) [Compound 1], for which the remaining activity at 10 µM came out at 117% in experiment [1]; 103% in experiment [2]; 86% in experiment [3]; 84% in experiment [4]; 94% in experiment [5]; 124% in experiment [6].
`O=c1[nH]c2ncc(-c3ccc(F)cc3)nc2n1CC1CC1` [Compound 10]: the remaining activity at 10 µM was found to be 101% in experiment [1]; 105% in experiment [2]; 92% in experiment [3]; 95% in experiment [4]; 96% in experiment [5]; 103% in experiment [6].
Turning to `O=c1[nH]c2ncc(-c3ccc(F)cc3)nc2n1C1CCCCC1` [Compound 12, 1-Cyclohexyl-6-(4-fluorophenyl)-1H-imidazo[4,5-b]pyrazin-2(3H)-one], the remaining activity at 10 µM in experiment [1] worked out at 93%; in experiment [2] it was 94%; in experiment [3], 94%; in experiment [4], 100%; in experiment [5], 96%; in experiment [6], 98%.
`C[C@H](c1ccccc1)n1c(=O)[nH]c2ncc(-c3ccccc3)nc21` [Compound 14, (R)-6-Phenyl-1-(1-phenylethyl)-1H-imidazo[4,5-b]pyrazin-2(3H)-one]: the remaining activity at 10 µM was 96% in experiment [1]; 77% in experiment [2]; 78% in experiment [3]; 80% in experiment [4]; 71% in experiment [5]; 87% in experiment [6].
